The record followed here is ChEMBL document CHEMBL1131826, “Targeting nitric oxide to cancer cells: cytotoxicity studies of glyco-S-nitrosothiols” (1999).

“And” between values parts separate entries of the source, which are not always exact repeats. Equal values may be shown once.

Common to all, as to assay type: functional
The test system of experiment [1] is DU-145. Kind of experiment: Cytotoxicity was evaluated against DU-145 human prostate cancer cells at 180 uM concentration.
In experiment [2] the test system is DU-145. Nature of the experiment: Cytotoxicity was evaluated against DU-145 human prostate cancer cells at 35 uM concentration.
In experiment [3] the test system is DU-145. Nature of the experiment: Cytotoxicity was evaluated against DU-145 human prostate cancer cells at 60 uM concentration.
For experiment [4], the system named is DU-145. Kind of experiment: Cytotoxicity towards DU145 human prostate cancer cell was expressed as median effect dose (MED).
Experiment [5] relates to DU-145. Kind of experiment: Cytotoxicity was evaluated against DU-145 human prostate cancer cells at 1.5 log dose.
Experiment [6] has as its system DU-145. Nature of the experiment: Cytotoxicity was evaluated against DU-145 human prostate cancer cells at 100 uM concentration.
The test system of experiment [7] is DU-145. Nature of the experiment: Cytotoxicity was evaluated against DU-145 human prostate cancer cells at 110 uM concentration.
For experiment [8], the system named is DU-145. Kind of experiment: Cytotoxicity was evaluated against DU-145 human prostate cancer cells at 1.4 log dose.
Experiment [9] concerns DU-145. Nature of the experiment: Cytotoxicity was evaluated against DU-145 human prostate cancer cells at 2 log dose.
Experiment [10] has as its system DU-145. Nature of the experiment: Cytotoxicity was evaluated against DU-145 human prostate cancer cells at 20 uM concentration.
For experiment [11], the system named is DU-145. Kind of experiment: Cytotoxicity was evaluated against DU-145 human prostate cancer cells at 50 uM concentration.
Experiment [12] deals with DU-145. Kind of experiment: Cytotoxicity was evaluated against DU-145 human prostate cancer cells at 0.7 log dose.
For experiment [13], the system named is DU-145. Kind of experiment: Cytotoxicity was evaluated against DU-145 human prostate cancer cells at 1.7 log dose.
The subject of experiment [14] is DU-145. Kind of experiment: Cytotoxicity was evaluated against DU-145 human prostate cancer cells at 10 uM concentration.
For experiment [15], the system named is DU-145. Kind of experiment: Cytotoxicity was evaluated against DU-145 human prostate cancer cells at 13 uM concentration.
Experiment [16] deals with DU-145. Kind of experiment: Cytotoxicity was evaluated against DU-145 human prostate cancer cells at 15 uM concentration.
The test system of experiment [17] is DU-145. Kind of experiment: Cytotoxicity was evaluated against DU-145 human prostate cancer cells at 0.3 log dose.

As to `CC(=O)N[C@@H](C(=O)O)C(C)(C)SN=O`, the Surviving fraction is 0.2 in experiment [1]; 1 in [2]; 1 in experiment [3]; 0.6 in experiment [6]; 0.5 in experiment [7]. The molecule also returned an MED in [4] of 110 µM. Further, the Log effect in [5] and in experiment [8] was 0 in each case.

In turn, `CC(=O)N[C@@H](C(=O)NC1C(O)OC(CO)C(O)C1O)C(C)(C)SN=O` (stereo not given in full) gave an MED in experiment [4] of 32 µM. The Log effect in [9] is 0 and -0.01.

Take `CC(=O)N[C@@H](C(=O)N[C@]1(CO)O[C@H](CO)[C@@H](O)[C@@H]1O)C(C)(C)SN=O`: the Surviving fraction in experiment [10] was determined as 0.45; in [11] it was 0.2; in experiment [14] it was 0.6; in experiment [15], 0.55; in experiment [16], 0.5. For the same molecule, the MED in experiment [4] amounted to 8.5 µM. For the same molecule, the Log effect is listed as -0.03 in experiment [12], 0.9 in experiment [13], -0.06 in experiment [17] and 0.6 in [8].
